Consider 1 molecule from patent US20100239669A1, “Combinations of statins and anti-obesity agent” (Scidose LLC, priority 2007, published 2010).

A short description of this assay: Patient on atorvastatin with orlistat added (co-therapy). The class given is in vivo, human. The protocol: A patient on atorvastatin 80 mg once daily is found to still be in need of reducing weight, triglyceride, and cholesterol levels further. […] The patient is maintained on this regimen for 2 months and thereafter the atorvastatin dosage is reduced to 60 mg once daily at which the reductions previously obtained are maintained. The patient is then switched to a fixed combination dosage form of 120 mg orlistat and 60 mg atorvastatin once daily. A patient on atorvastatin 10 mg once daily is found to be in need of weight reduction and triglyceride reduction, although cholesterol levels are adequately maintained by the atorvastatin. Orlistat 120 mg once daily is added to the regimen and each of weight, triglycerides and cholesterol drop. […] The patient is then changed to a fixed combination of 120 mg orlistat and 5 mg of atorvastatin.

SMILES strings stand for the structures.

Take `CCCCCCCCCCC[C@@H](C[C@@H]1OC(=O)[C@H]1CCCCCC)OC(=O)[C@H](CC(C)C)NC=O` [orlistat, N-formyl-L-leucine ester of (3S,4S)-3-hexyl-4-[(2S)-2-hydroxytridecyl]-2-oxetanone]: for the setting “Example 1: 120 mg once daily orlistat added to atorvastatin 80 mg once daily”, the “weight, serum triglycerides, and cholesterol” value is “begins to lower”. For the same molecule, under “Example 1: after 2 months atorvastatin reduced to 60 mg once daily, orlistat 120 mg once daily”, the “reductions previously obtained (weight, triglycerides, cholesterol)” value was “maintained”. In addition, the “lowered weight, triglycerides, and cholesterol levels” value (Example 2: after 6 weeks, 120 mg orlistat once daily and 5 mg atorvastatin once daily) was “surprisingly maintains”. Further, the “weight, triglycerides and cholesterol” value (Example 2: orlistat 120 mg once daily added to atorvastatin 10 mg once daily) was “drop”.
